From article PMC12002301, “Discovery and functional characterization of a bombesin-type neuropeptide signaling system in an invertebrate” (Proceedings of the National Academy of Sciences of the …, 2025)
“Also recorded” adds a separate entry of the source. Ends that are not written are not given here.

Legend:
tube foot preparations = conditions: cited from earlier work
Description: Based on the expression of ArBNP in the cardiac stomach and tube feet of A. rubens, experiments were performed to investigate effects of ArBN on in vitro preparations of these organs. […] In experiments where cardiac stomach preparations were washed in between application of ArBN at different ...

[1] = test system: GPCR activated by BN-type neuropeptide; conditions: Branchiostoma japonicum; cited from earlier work
From the text: Insights into the evolutionary history of BN-type neuropeptide signaling have been obtained from phylogenetic analysis of genome sequence data. A gene encoding a BN-type neuropeptide precursor was identified in the invertebrate chordate Branchiostoma floridae [subphylum Cephalochordata; ([4])] and, subsequently, experimental characterization of BN-type neuropeptide signaling in the cephalochordate Branchiostoma japonicum has been reported ([24]). A GPCR that is activated by the BN-type neuropeptide DKGQEHWQYGHWY-NH2 was identified. Furthermore, expression of the gene encoding this neuropeptide ...

fundic muscle of mice = conditions: cited from earlier work
From the text: (§1) The functional characterization of ArBN in A. rubens provides insights into the comparative physiology of BN-type neuropeptide signaling.

BB2 receptor (GRP-R) = test system: BB2 receptor (GRP-R); parameters: method as in PMID 1707129, PMID 1848080, PMID 1671171, PMID 1655761, PMID 31593737; conditions: mammals; cited from earlier work
[2] = test system: everted cardiac stomach of A. rubens; conditions: cited from earlier work
From the text: (§2) Starfish (A. rubens) feed by everting their cardiac stomach out of the mouth over the digestible soft tissues of prey (e.g., mussels) and when feeding is completed, the stomach is retracted back into the central disk region of the body ([45]). […] Discovery of neuropeptides that exert excitatory or inhibitory effects on the cardiac stomach in vitro is of interest with respect to the unusual feeding behavior of A. rubens and other starfish. When starfish feed on bivalve mollusks such as mussels, they use the collective pulling power of tube feet loca ...

[3] = test system: cardiac stomach preparations; conditions: cited from earlier work
Description: as §2, with “Based on the expression of ArBNP in the cardiac stomach and tube feet of A. rubens, experiments were performed to investigate effects of ArBN on in vitro preparations of these organs. […] In experiments where cardiac stomach preparations were washed in between application of ArBN at different ... || Starfish” for “Starfish”

[4] = test system: everted cardiac stomach of A. rubens; assay: In vivo retraction of everted cardiac stomach; parameters: species or system Asterias rubens; conditions: 10 µL of 10^-4 M injected, words
From the text: Therefore, we performed experiments to investigate whether ArBN causes cardiac stomach retraction in A. rubens when injected in vivo. A description of the methods employed for investigation of in vivo effects of ArBN on the everted cardiac stomach of A. rubens is included in SI Appendix, SI Methods. […]
foot preparations. Having determined that ArBN had effects on preparations when tested at a high concentration (10^-6 M), then dose-response data for this peptide were obtained with final concentrations in the organ bath ranging from 10^-10 M to 10^-6 M. Two types of tests were performed when obtaining dose-response data for ArBN:
Test type 1: Here the preparation was washed thoroughly with seawater after adding ArBN to the organ at different concentrations. […]
The contraction effect of NGFFYamide (10^-7 M) or ACh (10^-5 M) was defined as 100% and the effects of ArBN were calculated as a percentage of the effect of NGFFYamide or ACh. […]
Analysis of the in vivo effects of ArBN on the everted cardiac stomach of A. rubens The physiological status of the starfish (~8 cm in diameter) tested was normalized by a 7-day starvation period. […] Then, the starfish was firstly injected with 10 µl of distilled water (negative control) and video recorded using a camera (Canon EOS 700D) for 7 min. Then, the same starfish was injected with NGFFYamide (positive control) or ArBN and video recorded for 7 min. […]

[5] = test system: A. rubens feeding behavior; conditions: vs water; cited from earlier work
Description: Based on the effects of NGFFYamide, ArSK/CCK1, and ArSK/CCK2 in triggering a process associated with termination of feeding behavior—cardiac stomach retraction—the effects of neuropeptides on feeding behavior of starfish have also been investigated. In these experiments starfish were starved and then presented with prey (a mussel) in a testing tank and the time taken to touch, enclose, and then consume the mussel was measured.

BB1 receptor (NMB-R) = conditions: mammals; cited from earlier work
From the text: BN-type neuropeptides exert their effects by binding to GPCRs. In mammals, NMB and GRP act as high affinity ligands for the BB1 receptor (NMB-R) and the BB2 receptor (GRP-R), respectively, and orthologs of these receptors have been identified in nonmammalian vertebrates ([20]–[24]). […] BN-type neuropeptides are involved in regulation of a variety of physiological and behavioral processes in mammals/vertebrates, including t ...

[6] = test system: intestinal smooth muscle from caimans; conditions: cited from earlier work
From the text: as §1

Molecule: CC(=O)OCC[N+](C)(C)C [ACh, acetylcholine]
- effect on tube foot preparations in vitro (tube foot preparations): causes contraction of tube foot preparations in vitro

Molecule: DKGQEHWQYGHWY-NH2 [BN-type neuropeptide of the cephalochordate Branchiostoma japonicum]
- GPCR activation [1]: activated

Molecule: GRP: BN-like peptide identified in the porcine gut (APVSVGGGTVLAKMYPRGNHWAVGHLM; ends and bridges not checked; UniProt P63153 24-50, looked up)
- contraction of fundic muscle (fundic muscle of mice): dose-dependent contraction
- affinity for BB2 receptor (GRP-R) (BB2 receptor (GRP-R)): high affinity

Molecule: NGFFYamide [positive control]
- cardiac stomach retraction in vivo [2]: retraction in vivo; also recorded: trigger retraction of the everted cardiac stomach
- effect on cardiac stomach preparations in vitro [3]: causes contraction of cardiac stomach preparations in vitro; also recorded: triggers cardiac stomach contraction in vitro; also recorded: cause cardiac stomach contraction in vitro
- cardiac stomach retraction [4]: caused cardiac stomach retraction
- time taken to enclose a mussel [5]: increase in the time taken for starfish to touch and enclose a mussel
- time taken to touch a mussel [5]: increase in the time taken for starfish to touch

Molecule: NMB: ranatensin-like peptide identified in the porcine spinal cord
- affinity for BB1 receptor (NMB-R) (BB1 receptor (NMB-R)): high affinity
- contraction of fundic muscle (fundic muscle of mice): dose-dependent contraction

Molecule: pQQRLGNQWAVGHLM-NH2 [BN, peptide first isolated from the skin of the frog Bombina bombina]
- effect on intestinal smooth muscle [6]: excitatory effect
